SMILES strings stand for the structures.

The results in this text go back to ChEMBL document CHEMBL2311286, “Design and synthesis of alkoxyindolyl-3-acetic acid analogs as peroxisome proliferator-activated receptor-γ/δ agonists” (Bioorg Med Chem Lett, 2013).

In experiment [1] the target is T1, Peroxisome proliferator-activated receptor delta (Mus musculus) (UniProt P35396).
T1 sequence (whole entry): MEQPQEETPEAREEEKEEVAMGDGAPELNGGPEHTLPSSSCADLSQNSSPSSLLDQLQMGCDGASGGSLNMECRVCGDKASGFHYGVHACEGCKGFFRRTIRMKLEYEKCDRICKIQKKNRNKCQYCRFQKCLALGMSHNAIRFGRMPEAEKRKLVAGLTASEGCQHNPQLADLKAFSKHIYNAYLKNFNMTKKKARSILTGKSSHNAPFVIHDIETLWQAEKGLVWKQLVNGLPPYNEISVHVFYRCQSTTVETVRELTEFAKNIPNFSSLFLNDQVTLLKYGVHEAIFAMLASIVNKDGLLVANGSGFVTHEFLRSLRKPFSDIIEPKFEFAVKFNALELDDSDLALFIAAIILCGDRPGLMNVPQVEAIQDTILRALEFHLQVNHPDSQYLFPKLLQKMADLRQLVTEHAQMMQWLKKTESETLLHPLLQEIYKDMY
Nature of the experiment: Agonist activity at mouse PPARdelta assessed as maximum activation at 10 uM by in vitro functional transactivation assay relative to 0.1 uM GW0742.

Experiment [2] addresses T2, Peroxisome proliferator-activated receptor gamma (Mus musculus) (UniProt P37238).
T2 sequence (whole entry): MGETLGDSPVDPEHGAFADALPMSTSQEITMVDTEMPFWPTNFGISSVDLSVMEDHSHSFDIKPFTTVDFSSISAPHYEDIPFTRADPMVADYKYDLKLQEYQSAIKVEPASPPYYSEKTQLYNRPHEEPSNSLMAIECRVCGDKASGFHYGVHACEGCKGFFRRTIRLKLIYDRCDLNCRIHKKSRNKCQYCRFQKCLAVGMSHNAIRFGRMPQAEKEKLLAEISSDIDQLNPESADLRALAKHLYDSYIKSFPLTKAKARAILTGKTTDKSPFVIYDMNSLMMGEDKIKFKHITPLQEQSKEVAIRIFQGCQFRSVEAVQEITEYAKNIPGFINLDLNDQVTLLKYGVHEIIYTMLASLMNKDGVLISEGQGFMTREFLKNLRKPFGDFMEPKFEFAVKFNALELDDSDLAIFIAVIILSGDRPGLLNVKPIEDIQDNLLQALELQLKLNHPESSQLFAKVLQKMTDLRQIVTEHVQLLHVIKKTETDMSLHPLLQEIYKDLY
Briefly: Agonist activity at mouse PPARgamma assessed as maximum activation at 10 uM by in vitro functional transactivation assay relative to 1 uM rosiglitazone.

Experiment [3] addresses T3, Peroxisome proliferator-activated receptor alpha (Mus musculus) (UniProt P23204).
T3 sequence (whole entry): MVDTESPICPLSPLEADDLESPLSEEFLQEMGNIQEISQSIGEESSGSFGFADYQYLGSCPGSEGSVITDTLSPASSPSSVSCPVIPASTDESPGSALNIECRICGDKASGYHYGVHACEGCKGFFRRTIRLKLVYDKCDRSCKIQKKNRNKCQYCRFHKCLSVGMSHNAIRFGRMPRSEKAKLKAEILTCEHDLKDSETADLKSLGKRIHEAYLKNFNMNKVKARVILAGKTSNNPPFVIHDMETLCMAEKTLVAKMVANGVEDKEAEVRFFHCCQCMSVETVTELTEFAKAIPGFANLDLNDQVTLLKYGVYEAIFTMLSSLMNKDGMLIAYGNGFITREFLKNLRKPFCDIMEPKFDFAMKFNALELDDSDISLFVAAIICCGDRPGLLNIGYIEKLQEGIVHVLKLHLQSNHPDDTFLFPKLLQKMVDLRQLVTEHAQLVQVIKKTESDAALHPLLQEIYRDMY
Briefly: Agonist activity at mouse PPARalpha assessed as maximum activation at 10 uM by in vitro functional transactivation assay relative to 1 uM GW0746.

For the compound `O=C(O)Cc1c[nH]c2cc(OCCCN3c4ccccc4Oc4ccccc43)ccc12`, the %max in experiment [1], in experiment [2] and in experiment [3] was under 10% each time.

As to `O=C(O)Cc1cn(Cc2ccccc2)c2ccc(OCCCN3c4ccccc4Oc4ccccc43)cc12`, the %max in experiment [1] was found to be 21.7%; in experiment [2] it was 43.1%; in experiment [3], 12.8%.

Regarding `O=C(O)Cc1c[nH]c2cc(OCCCn3c4ccccc4c4ccccc43)ccc12`, the %max in experiment [1], in experiment [2] and in experiment [3] was under 10% in each case.

For the compound `O=C(O)Cc1cn(Cc2ccccc2)c2cc(OCCCn3c4ccccc4c4ccccc43)ccc12`, the %max in experiment [1], in experiment [2] and in experiment [3] was under 10% each time.

On to `O=C(O)Cc1c[nH]c2ccc(OCCCN3c4ccccc4Oc4ccccc43)cc12`, for which the %max in experiment [1] is 16%; in experiment [2], 29.4%; in experiment [3] it was under 10%.

For the compound `O=C(O)Cc1cn(Cc2ccccc2)c2ccc(OCCCn3c4ccccc4c4ccccc43)cc12`, the results for the %max in experiment [1], in experiment [2] and in experiment [3] were 41.3%, 28.7% and under 10%, respectively.

As to `O=C(O)Cc1c[nH]c2ccc(OCCCn3c4ccccc4c4ccccc43)cc12`, the %max in experiment [1] is 10.5%; in experiment [2], under 10%; in experiment [3], 10.1%.

As to `O=C(O)Cc1cn(Cc2ccc(F)cc2)c2cc(OCCCN3c4ccccc4Oc4ccccc43)ccc12`, the figures for the %max in experiment [1], in experiment [2] and in experiment [3] were 36.6%, 23.8% and under 10%, respectively.

In the case of `O=C(O)Cc1cn(Cc2ccccc2)c2cc(OCCCN3c4ccccc4Oc4ccccc43)ccc12`, the values for the %max in experiment [1], in experiment [2] and in experiment [3] were 27.3%, under 10% and under 10%, respectively.
